Laboratory results published in patent publication US20060069132A1, “Azolecarboxamide herbicides” (priority 2004, published 2006).

Experiments:
common purslane = experiment: Test E pre-/postemergence herbicide test; type: in vivo, Portulaca oleracea; settings: Preemergence
Procedure, shortened: (§1)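 Herbicidal effect scored visually, 0–100 scale, versus controls. Treatments: preemergence on planted seed; postemergence on 2–18 cm seedlings. Greenhouse, 12 to 14 days.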

barnyardgrass = experiment: Test E pre-/postemergence herbicide test; type: in vivo, Echinochloa crus-galli
Procedure, shortened: as §1

common groundsel = experiment: Test E pre-/postemergence herbicide test; type: in vivo, Senecio vulgaris
Procedure, shortened: as §1

quackgrass = experiment: Test E pre-/postemergence herbicide test; type: in vivo, Elytrigia repens
Procedure, shortened: as §1

field bindweed = experiment: Test E pre-/postemergence herbicide test; type: in vivo, Convolvulus arvensis
Procedure, shortened: as §1

downy bromegrass = experiment: Test E pre-/postemergence herbicide test; type: in vivo, Bromus tectorum
Procedure, shortened: as §1

itchgrass = experiment: Test E pre-/postemergence herbicide test; type: in vivo, Rottboellia cochinchinensis
Procedure, shortened: as §1

Russian thistle = experiment: Test E pre-/postemergence herbicide test; type: in vivo, Salsola kali; settings: Preemergence
Procedure, shortened: as §1

tropical spiderwort = experiment: Test E pre-/postemergence herbicide test; type: in vivo, Commelina benghalensis
Procedure, shortened: as §1

blackgrass = experiment: Test C postemergence herbicide test; type: in vivo, Alopecurus myosuroides
Procedure, shortened: (§2)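 Weeds and wheat were sprayed after emergence, at a height of 2 to 18 cm (1–4 leaves), and paddy barnyardgrass was flooded and treated at two leaves. Assessment took place 12–14 days later in the greenhouse on a 0-to-100 visual control scale. A dash means no result was obtained.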

windgrass = experiment: Test C postemergence herbicide test; type: in vivo, Apera spica-venti
Procedure, shortened: as §2

wheat = experiment: Test C postemergence herbicide test; type: in vivo, Triticum aestivum
Procedure, shortened: as §2

Italian ryegrass = experiment: Test C postemergence herbicide test; type: in vivo, Lolium multiflorum
Procedure, shortened: as §2

[1] = 250 g ai/ha, scale 0 (no effect) to 100 (complete control)
[2] = 500 g ai/ha, scale 0 (no effect) to 100 (complete control)
[3] = Postemergence, 500 g ai/ha, scale 0 to 100
[4] = Postemergence, 250 g ai/ha, scale 0 to 100
[5] = Preemergence, 62 g ai/ha, scale 0 to 100
[6] = Preemergence, 125 g ai/ha, scale 0 to 100
[7] = Preemergence, 250 g ai/ha, scale 0 (no effect) to 100 (complete control)
[8] = Preemergence, 500 g ai/ha, scale 0 (no effect) to 100 (complete control)
[9] = postemergence, 125 g ai/ha, scale 0 to 100
[10] = postemergence, 62 g ai/ha, scale 0 to 100
[11] = Postemergence, 500 g ai/ha, scale 0 to 100, 0 no effect, 100 complete control

CCn1nc(C(C)(C)C)cc1C(=O)Nc1cccc(C(N)=O)n1 [Compound 162, 6-[[[3-(1,1-dimethylethyl)-1-ethyl-1H-pyrazol-5-yl]carbonyl]amino]-2-pyridinecarboxamide]
80: Plant response rating, Barnyardgrass (barnyardgrass; [9]) | Plant response rating, Groundsel (common groundsel; [4]) | Plant response rating, Groundsel (common groundsel; [7]) | Plant response rating, Bindweed, Field (field bindweed; [6]) | Plant response rating, Bindweed, Field (field bindweed; [9]) | Plant response rating, Bromegrass, Downy (downy bromegrass; [6])
20: Plant response rating, Groundsel (common groundsel; [10]) | Plant response rating, Quackgrass (quackgrass; [5]) | Plant response rating, Spiderwort (tropical spiderwort; [5])
85: Plant response rating, Itchgrass (itchgrass; [9])
60: Plant response rating, Barnyardgrass (barnyardgrass; [5]) | Plant response rating, Barnyardgrass (barnyardgrass; [10]) | Plant response rating, Quackgrass (quackgrass; [6]) | Plant response rating, Spiderwort (tropical spiderwort; [4])
75: Plant response rating, Quackgrass (quackgrass; [7]) | Plant response rating, Itchgrass (itchgrass; [10]) | Plant response rating, Spiderwort (tropical spiderwort; [7]) | Plant response rating, Spiderwort (tropical spiderwort; [8])
10: Plant response rating, Groundsel (common groundsel; [5]) | Plant response rating, Spiderwort (tropical spiderwort; [9])
100: Plant response rating, Purslane (common purslane; 62 g ai/ha, scale 0 to 100) | Plant response rating, Purslane (common purslane; 125 g ai/ha, scale 0 to 100) | Plant response rating, Purslane (common purslane; [1]) | Plant response rating, Purslane (common purslane; [2]) | Plant response rating, Barnyardgrass (barnyardgrass; [6]) | Plant response rating, Barnyardgrass (barnyardgrass; [7]) | Plant response rating, Barnyardgrass (barnyardgrass; [8]) | Plant response rating, Groundsel (common groundsel; [3]) | Plant response rating, Groundsel (common groundsel; [8]) | Plant response rating, Bindweed, Field (field bindweed; [7]) | Plant response rating, Bindweed, Field (field bindweed; [8]) | Plant response rating, Bromegrass, Downy (downy bromegrass; [3]) | Plant response rating, Bromegrass, Downy (downy bromegrass; [8]) | Plant response rating, Itchgrass (itchgrass; [8])
0: Plant response rating, Spiderwort (tropical spiderwort; [10])
30: Plant response rating, Groundsel (common groundsel; [9]) | Plant response rating, Bindweed, Field (field bindweed; [5])
90: Plant response rating, Barnyardgrass (barnyardgrass; [4]) | Plant response rating, Quackgrass (quackgrass; [4]) | Plant response rating, Quackgrass (quackgrass; [8]) | Plant response rating, Bromegrass, Downy (downy bromegrass; [7])
95: Plant response rating, Barnyardgrass (barnyardgrass; [3]) | Plant response rating, Quackgrass (quackgrass; [3]) | Plant response rating, Bindweed, Field (field bindweed; [4]) | Plant response rating, Bromegrass, Downy (downy bromegrass; [9]) | Plant response rating, Itchgrass (itchgrass; [3]) | Plant response rating, Itchgrass (itchgrass; [4]) | Plant response rating, Itchgrass (itchgrass; [6]) | Plant response rating, Itchgrass (itchgrass; [7])
50: Plant response rating, Quackgrass (quackgrass; [10]) | Plant response rating, Bindweed, Field (field bindweed; [10]) | Plant response rating, Bromegrass, Downy (downy bromegrass; [10]) | Plant response rating, Thistle (Russian thistle; 62 g ai/ha, scale 0 to 100) | Plant response rating, Thistle (Russian thistle; 125 g ai/ha, scale 0 to 100)
70: Plant response rating, Quackgrass (quackgrass; [9]) | Plant response rating, Thistle (Russian thistle; [2])
98: Plant response rating, Bindweed, Field (field bindweed; [3]) | Plant response rating, Bromegrass, Downy (downy bromegrass; [4])
40: Plant response rating, Groundsel (common groundsel; [6]) | Plant response rating, Bromegrass, Downy (downy bromegrass; [5]) | Plant response rating, Itchgrass (itchgrass; [5]) | Plant response rating, Spiderwort (tropical spiderwort; [6])
65: Plant response rating, Spiderwort (tropical spiderwort; [3])

CCNC(=O)c1cccc(NC(=O)c2nn(C(C)(C)C)nc2C)c1 [Compound 392]
65: Blackgrass plant response rating (blackgrass; [3]) | Plant response rating, Windgrass (windgrass; [11]) | Plant response rating, Ryegrass, Italian (Italian ryegrass; [11])
35: Plant response rating, Blackgrass (blackgrass; [10]) | Plant response rating, Windgrass (windgrass; [10]) | Plant response rating, Wheat (wheat; [11]) | Plant response rating, Ryegrass, Italian (Italian ryegrass; [10])
55: Plant response rating, Windgrass (windgrass; [9])
45: Plant response rating, Blackgrass (blackgrass; Postemergence, 250 g ai/ha, scale 0 to 100, 0 no effect, 100 complete control) | Plant response rating, Blackgrass (blackgrass; [9])
90: Plant response rating, Purslane (common purslane; 125 g ai/ha, scale 0 to 100) | Plant response rating, Barnyardgrass (barnyardgrass; [7]) | Plant response rating, Itchgrass (itchgrass; [8])
50: Plant response rating, Ryegrass, Italian (Italian ryegrass; [9]) | Plant response rating, Itchgrass (itchgrass; [5]) | Plant response rating, Spiderwort (tropical spiderwort; [6])
10: Plant response rating, Groundsel (common groundsel; [5]) | Plant response rating, Quackgrass (quackgrass; [5]) | Plant response rating, Bromegrass, Downy (downy bromegrass; [5]) | Plant response rating, Thistle (Russian thistle; 125 g ai/ha, scale 0 to 100)
85: Plant response rating, Itchgrass (itchgrass; [6]) | Plant response rating, Itchgrass (itchgrass; [7])
75: Plant response rating, Barnyardgrass (barnyardgrass; [5]) | Plant response rating, Barnyardgrass (barnyardgrass; [6])
70: Plant response rating, Quackgrass (quackgrass; [7])
30: Plant response rating, Bindweed, Field (field bindweed; [5]) | Plant response rating, Bindweed, Field (field bindweed; [6]) | Plant response rating, Wheat (wheat; [9]) | Plant response rating, Bromegrass, Downy (downy bromegrass; [7]) | Plant response rating, Bromegrass, Downy (downy bromegrass; [8])
95: Plant response rating, Groundsel (common groundsel; [8]) | Plant response rating, Quackgrass (quackgrass; [8]) | Plant response rating, Spiderwort (tropical spiderwort; [7])
20: Plant response rating, Wheat (wheat; [10]) | Plant response rating, Bromegrass, Downy (downy bromegrass; [6])
100: Plant response rating, Purslane (common purslane; [1]) | Plant response rating, Purslane (common purslane; [2]) | Plant response rating, Barnyardgrass (barnyardgrass; [8]) | Plant response rating, Bindweed, Field (field bindweed; [7]) | Plant response rating, Bindweed, Field (field bindweed; [8]) | Plant response rating, Thistle (Russian thistle; [2]) | Plant response rating, Spiderwort (tropical spiderwort; [8])
60: Plant response rating, Groundsel (common groundsel; [6]) | Plant response rating, Groundsel (common groundsel; [7]) | Plant response rating, Quackgrass (quackgrass; [6])
